Experimental data from PMC8844858, “Crystal structure and functional analysis of mycobacterial erythromycin resistance methyltransferase Erm38 reveals its RNA-binding site” (The Journal of Biological Chemistry, 2022).
Where two headings read alike, the source gives them in different places.

Target: T1, Erm38 (Mycolicibacterium smegmatis, UniProt Q79N53)
T1 construct: gene erm(38); truncated, residues 13-261 of 386 (disordered termini removed), about 30 kDa; synthetic codon-optimised gene in pNIC28-Bsa4, E. coli BL21(DE3)-T1R Rosetta; IMAC, cation exchange and size exclusion
T1 sequence (Q79N53 entry or part of it): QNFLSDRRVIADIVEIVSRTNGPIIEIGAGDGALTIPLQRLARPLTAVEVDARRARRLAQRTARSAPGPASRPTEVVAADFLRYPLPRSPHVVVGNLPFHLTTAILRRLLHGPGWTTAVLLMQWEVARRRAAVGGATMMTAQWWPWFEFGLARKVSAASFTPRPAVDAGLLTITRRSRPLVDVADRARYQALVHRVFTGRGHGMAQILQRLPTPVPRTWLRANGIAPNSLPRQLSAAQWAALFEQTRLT
Conditions: 2.25 A, SAM-binding site

Compound	X-ray crystal structure (soak) (2 mM sinefungin soaked 24 h into native crystals)	X-ray crystal structure (soak) (2 mM SAM soaked 24 h into native crystals)
Nc1ncnc2c1ncn2[C@@H]1O[C@H](C[C@@H](N)CC[C@H](N)C(=O)O)[C@@H](O)[C@H]1O [SFG, sinefungin]	cocrystals with either SAM or the isosteric sinefungin inhibitor were obtained by soaking	–
C[S+](CC[C@H](N)C(=O)O)C[C@H]1O[C@@H](n2cnc3c(N)ncnc32)[C@H](O)[C@@H]1O (some centres unmarked) [SAM]	–	cocrystals with either SAM or the isosteric sinefungin inhibitor were obtained by soaking
